Experimental data from patent US12234230B2, “Substituted benzyl-triazole compounds for Cbl-b inhibition, and further uses thereof” (Nurix Therapeutics, Inc., priority 2019, dated 2025).

What was measured:
Cbl-b [1] = molecular target: T1, Cbl-b (Homo sapiens (Human), UniProt Q13191); experiment: Cbl-b displacement assay (Cbl-b inhibition assay), Biological Example 1; assay type: binding; conditions: 0.125 nM Cbl-b final concentration (Low); read-out: Cbl-b activity IC50 (Low)
Experimental: (§1) The ability of candidate compounds to displace a known inhibitor and thereby inhibit Cbl-b activity was measured by monitoring the interaction of Cbl-b with a fluorophore-labeled probe in the presence of the candidate compound.
Following the one hour incubation, the plates were read for TR-FRET signal at 520/620 nm using an Envision plate reader (Perkin Elmer).

Cbl-b [2] = molecular target: T1, Cbl-b; experiment: Cbl-b displacement assay (Cbl-b inhibition assay), Biological Example 8; assay type: binding; conditions: 0.125 nM Cbl-b final concentration (Low); Table 8-1
Experimental: (§2) Candidate compounds were evaluated for their ability to bind and inhibit Cbl-b, an E3 ubiquitin-protein ligase, as evidenced by their ability to displace a fluorophore-labeled probe bound to Cbl-b.
as §1
(§3) Fluorescently-labeled inhibitor probe was synthesized and tagged with BODIPY FL. […] Following the one hour incubation, the plates were read for TR-FRET signal at 520/620 nm using an Envision plate reader (Perkin Elmer).
(§4) The resulting data for the Cbl-b activity assays were analyzed using standard methods to determine the IC50 values for the tested compounds.

Cbl-b [3] = molecular target: T1, Cbl-b; experiment: Cbl-b displacement assay (Cbl-b inhibition assay), Biological Example 11; assay type: binding; conditions: 0.125 nM Cbl-b final concentration (Low); Table 11-1
Experimental: as §2, §1, §3, §4

TC-1 cells = experiment: TC-1 syngeneic mouse model, vaccine combination, Biological Example 15; assay type: in vivo; conditions: Compound 23 orally D13 to D47 in combination with HPV16 vaccine s.c. at D13 and D20; TC-1 tumor bearing mice
Experimental: Mice were implanted with 50,000 TC-1 cells/mouse subcutaneously into the right flank at Day Zero (DO). Thirteen days later (D13), when tumors measured approximately 50-100 mm^3, mice from appropriate groups (15 mice per group) were injected with HPV16 vaccine (s.c., total 2 doses, at D13 and Day 20 (D20)). […] Mice were euthanized when tumor exceeded 1500-2000 mm^3, according to IACUC guidelines. Survival was compared using GraphPad Prism using log-rank (Mantel-Cox) test. **=p<0.001 of treatment vs. Vehicle+Vaccine control group at Day 61.
TC-1 cells were derived by stable transfection of mouse lung epithelial cells with human papillomavirus strain 16 (HPV16) early proteins 6 and 7 (E6 and E7) and activated h-ras oncogene. Cells were obtained from Dr. T-C Wu (Johns Hopkins University). (Lin K Y, Guarnieri F G, Staveley-O'Carroll K F, Levitsky H I, August J T, Pardoll D M, et al. Treatment of established tumors with a novel vaccine that enhances major histocompatibility class II presentation of tumor antigen. Cancer Res 1996; 56:21-6).
The HPV16 vaccine was prepared as follows: The CTL epitope from HPV16 E749-57 (9 amino acid (aa) peptide, […], 100 μg/mouse, SEQ ID NO: 2) was mixed with synthetic T helper epitope PADRE (13 aa peptide, aK-Cha-[…]a, SEQ ID NO: 3, where “a” is D-alanine and Cha is L-cyclohexylalanine, 20 μg/mouse) and with QuilA adjuvant (20 ug/mouse).

[4] = system: colon carcinoma CT26 tumor cells; conditions: 30 mg/kg PO daily D8 to D28; CT26 tumors on both flanks; compared to vehicle control
Experimental: Mice were implanted with 100,000 colon carcinoma CT26 tumor cells on both flanks of the mice. […] Treatments were continued daily until Day Twenty Eight (D28). […] A group of mice received an oral vehicle (0.5% Methylcellulose, 0.2% Polysorbate 80). Tumor growth inhibition (TGI) was calculated as follows: (1−(median tumor volume of drug treated group/median tumor volume of vehicle treated group))×100.

[5] = system: primary human total T-cells; experiment: Primary human total T-cell activation (IL-2 secretion, CD25 surface staining), Biological Example 2; conditions: anti-CD3 and anti-CD28 co-stimulation, fold change over baseline
[6] = system: primary human total T-cells; experiment: Primary human total T-cell activation (IL-2 secretion, CD25 surface staining), Biological Example 9; conditions: anti-CD3 and anti-CD28 co-stimulation, fold change over baseline, Table 9-1
Experimental: Peripheral blood mononuclear cells (PBMC) were obtained either: 1) by using Ficoll-Paque™ (GE Healthcare) for separation of peripheral blood hematopoietic cells from buffy coats of healthy human donors; or 2) directly from LeukoPak donations. […] The cells were rested overnight at 37° C. 5% CO2. The Cbl-inhibitor was added to 1×10^5 cells per well and the plate was incubated for one hour at 37° C. in 5% CO2 at the concentrations indicated (Table 9-1) with a final DMSO concentration of <0.1%. For samples stimulated with anti-CD3 antibody and anti-CD28 antibody (anti-CD3/anti-CD28), the Cbl-b inhibitor concentrations tested were 1 μM, and 0.3 μM. For samples stimulated with anti-CD3 antibody alone (anti-CD3), the Cbl-b inhibitor concentrations tested were 3 μM, and 1 μM. […] To prepare plates with plate bound anti-CD3 antibody (OKT3), 96-well round bottom tissue culture plates were coated with 100 μL of anti-CD3 antibody (OKT3) at 10 μg/mL for 4 hours at 37° C. 5% CO2 in phosphate buffered saline (PBS). […] Cells were stimulated for 48 hours prior to harvesting the cell free supernatant and staining the cell population for surface marker assessment by flow cytometry. Supernatants were analyzed for cytokine secretion, including IL-2 by ELISA (R&D Systems, Peprotech or Life Technologies) or Luminex multiplex kits (Procarta Life Technologies) following the manufacturer's protocol. Cells were stained with anti-CD25 antibody (BD Biosciences) to assess levels of surface marker of activation.
Readouts were reported as fold change over baseline. Baseline for this study was the measurement obtained from total human T-cells stimulated with anti-CD3 antibody and with soluble anti-CD28 antibody, wherein the cells were not incubated with a Cbl-b inhibitor (Table 9-1). […] For T-cells stimulated with anti-CD3 alone, changes greater than 0.1-fold over baseline for IL-2 secretion and greater than 0.6-fold over baseline for CD25 surface staining were considered significant and a positive response.

[7] = system: primary human total T-cells; experiment: Primary human total T-cell activation (IL-2 secretion, CD25 surface staining), Biological Example 12; conditions: anti-CD3 and anti-CD28 co-stimulation, fold change over baseline, Table 12-1
Experimental: Peripheral blood mononuclear cells (PBMC) were obtained either: 1) by using Ficoll-Paque™ (GE Healthcare) for separation of peripheral blood hematopoietic cells from buffy coats of healthy human donors; or 2) directly from LeukoPak donations. […] The cells were rested overnight at 37° C. 5% CO2. The Cbl-inhibitor was added to 1×10^5 cells per well and the plate was incubated for one hour at 37° C. in 5% CO2 at the concentrations indicated (Table 12-1) with a final DMSO concentration of <0.1%. For samples stimulated with anti-CD3 antibody and anti-CD28 antibody (anti-CD3/anti-CD28), the Cbl-b inhibitor concentrations tested were 1 μM, and 0.3 μM. For samples stimulated with anti-CD3 antibody alone (anti-CD3), the Cbl-b inhibitor concentrations tested were 3 μM, and 1 μM. […] To prepare plates with plate bound anti-CD3 antibody (OKT3), 96-well round bottom tissue culture plates were coated with 100 μL of anti-CD3 antibody (OKT3) at 10 μg/mL for 4 hours at 37° C. 5% CO2 in phosphate buffered saline (PBS). […] Cells were stimulated for 48 hours prior to harvesting the cell free supernatant and staining the cell population for surface marker assessment by flow cytometry. Supernatants were analyzed for cytokine secretion, including IL-2 by ELISA (R&D Systems, Peprotech or Life Technologies) or Luminex multiplex kits (Procarta Life Technologies) following the manufacturer's protocol. Cells were stained with anti-CD25 antibody (BD Biosciences) to assess levels of surface marker of activation.
Readouts were reported as fold change over baseline. Baseline for this study was the measurement obtained from total human T-cells stimulated with anti-CD3 antibody and with soluble anti-CD28 antibody, wherein the cells were not incubated with a Cbl-b inhibitor (Table 12-1). […] For T-cells stimulated with anti-CD3 alone, changes greater than 0.1-fold over baseline for IL-2 secretion and greater than 0.6-fold over baseline for CD25 surface staining were considered significant and a positive response.

T1 sequence (Q13191 36-427): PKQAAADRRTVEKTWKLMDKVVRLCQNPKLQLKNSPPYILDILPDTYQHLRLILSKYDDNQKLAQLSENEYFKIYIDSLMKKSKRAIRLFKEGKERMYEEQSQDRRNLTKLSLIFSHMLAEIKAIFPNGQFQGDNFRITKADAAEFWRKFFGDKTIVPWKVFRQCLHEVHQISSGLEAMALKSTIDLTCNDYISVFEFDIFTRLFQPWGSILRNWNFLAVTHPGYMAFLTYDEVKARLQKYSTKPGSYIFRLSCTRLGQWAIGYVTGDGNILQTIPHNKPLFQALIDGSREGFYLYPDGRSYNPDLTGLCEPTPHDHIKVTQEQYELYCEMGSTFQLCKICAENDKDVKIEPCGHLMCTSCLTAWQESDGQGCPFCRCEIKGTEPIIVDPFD

C[C@H]1CCCN(Cc2cc3c(c(C(F)(F)F)c2)CN(c2cccc([C@]4(c5nncn5C)C[C@@H](C)C4)c2)C3=O)C1 [Compound 23, 2-(3-((1s,3R)-3-methyl-1-(4-methyl-4H-1,2,4-triazol-3-yl)cyclobutyl)phenyl)-6-(((S)-3-methylpiperidin-1-yl)methyl)-4-(trifluoromethyl)isoindolin-1-one]
IC50 (Cbl-b [1]): < 5 nM | IC50 (Cbl-b [2]): < 1 nM | IC50 (Cbl-b [3]): < 1 nM | survival (TC-1 cells): prolonged survival | tumor progression (tumor volume) (TC-1 cells): significant slowdown of tumor progression | Tumor growth inhibition (TGI) [4]: 68% | CD25 staining CD3/CD28 0.3 μM ([5]; 0.3 μM inhibitor): B (B indicates 1.24-1.39 fold) | IL-2 secretion CD3/CD28 0.3 μM ([5]; 0.3 μM inhibitor): C (C indicates <20 fold) | CD25 staining CD3/CD28 1 μM ([5]; 1 μM inhibitor): B (B indicates 1.24-1.39 fold) | IL-2 secretion CD3/CD28 1 μM ([5]; 1 μM inhibitor): C (C indicates <20 fold) | IL-2 secretion CD3/CD28 0.3 μM ([6]; 0.3 μM inhibitor): A (A indicates >15 fold) | IL-2 secretion CD3/CD28 1 μM ([6]; 1 μM inhibitor): A (A indicates >15 fold) | IL-2 secretion CD3/CD28 0.3 μM ([7]; 0.3 μM inhibitor): A (A indicates >15 fold) | IL-2 secretion CD3/CD28 1 μM ([7]; 1 μM inhibitor): A (A indicates >15 fold)
